{
  "source": "patent US7964732B2",
  "about": "“Substituted bicyclocarboxyamide compounds” (Pfizer Inc., priority 2006, dated 2011)",
  "key": {"human VR1 [1]": {"molecular_target": "T1, human VR1 (Homo sapiens, UniProt Q8NER1)", "T1 construct": "host or cells: cells that express human VR1 receptors (cell type not specified)", "T1 sequence (Q8NER1 whole entry)": "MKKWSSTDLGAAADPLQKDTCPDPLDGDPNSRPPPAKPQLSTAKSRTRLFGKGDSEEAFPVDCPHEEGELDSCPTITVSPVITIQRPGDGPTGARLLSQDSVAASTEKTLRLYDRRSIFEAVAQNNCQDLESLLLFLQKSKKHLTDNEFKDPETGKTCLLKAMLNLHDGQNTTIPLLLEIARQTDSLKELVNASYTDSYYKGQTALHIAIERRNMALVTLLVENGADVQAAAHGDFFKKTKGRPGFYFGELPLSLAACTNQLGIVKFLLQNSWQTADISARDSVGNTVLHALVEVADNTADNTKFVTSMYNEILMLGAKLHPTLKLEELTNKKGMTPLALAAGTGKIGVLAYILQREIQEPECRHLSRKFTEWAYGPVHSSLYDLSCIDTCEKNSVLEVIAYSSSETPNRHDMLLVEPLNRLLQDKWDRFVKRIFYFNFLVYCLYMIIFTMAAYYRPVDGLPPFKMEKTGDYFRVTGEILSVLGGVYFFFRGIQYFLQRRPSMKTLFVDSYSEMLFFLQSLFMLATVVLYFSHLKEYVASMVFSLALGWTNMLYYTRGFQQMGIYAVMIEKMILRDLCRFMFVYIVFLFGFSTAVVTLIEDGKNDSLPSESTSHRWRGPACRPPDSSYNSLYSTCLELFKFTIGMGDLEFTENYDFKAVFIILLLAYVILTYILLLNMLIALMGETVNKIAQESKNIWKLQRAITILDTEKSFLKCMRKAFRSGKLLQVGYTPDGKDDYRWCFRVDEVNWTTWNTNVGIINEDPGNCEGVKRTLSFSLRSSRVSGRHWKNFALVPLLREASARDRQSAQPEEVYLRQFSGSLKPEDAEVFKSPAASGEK", "assay": "Human VR1 antagonist assay (Ca2+ imaging assay using human VR1 highly expressing cells)", "format": "cell-based", "conditions": "intracellular Ca2+ imaging (fura-2)", "from_the_text": "VR1 antagonistic activity can be determined by the Ca^2+ imaging assay using human VR1 highly expressing cells. The cells that highly express human VR1 receptors are obtainable from several different conventional methods. The one standard method is cloning from human Dorsal Root Ganglion (DRG) or kidney according to the methods such as described in the journal article; Nature, 389, pp 816-824, 1997. Alternatively VR1 receptors highly expressing human keratinocytes are also known and published in the journal article (Biochemical and Biophysical Research Communications, 291, pp 124-129, 2002). […] Furthermore, the method to up regulate human VR1 gene, which is usually a silent gene or don't produce detectable level of VR1 receptors, is also available to obtain propriety cells. Such genetic modification method was described in detail; Nat. Biotechnol., 19, pp 440-445, 2001.\nThe cells that express human VR1 receptors were maintained in culture flask at 37° C. in an environment containing 5% CO2 until use in the assay. The intracellular Ca^2+ imaging assay to determine VR1 antagonistic activities were done by following procedures.\nThe culture medium was removed from the flask and fura-2/AM fluorescent calcium indicator was added to the flask at a concentration of 5 μM in the medium. The flask was placed in CO2 incubator and incubated for 1 hour. Then the cells expressing the human VR1 receptors were detached from the flask follow by washing with phosphate buffer saline, PBS(−) and re-suspended in assay buffer. The 80 μl of aliquot of cell suspension (3.75×10^5 cells/ml) was added to the assay plate and the cells were spun down by centrifuge (950 rpm, 20° C., 3 minutes).\nCompounds of the examples were tested in the Human VR1 antagonist assay described above.\nThe capsaicin-induced changes in the intracellular calcium concentration were monitored using FDSS 6000 (Hamamatsu Photonics, Japan), a fluorometric imaging system. The cell suspension in Krebs-Ringer HEPES (KRH) buffer (115 mM NaCl, 5.4 mM KCl, 1 mM MgSO4, 1.8 mM CaCl2, 11 mM D-Glucose, 25 mM HEPES, 0.96 mM Na2HPO4, pH 7.3) were pre-incubated with varying concentrations of the test compounds or KRH buffer (buffer control) for 15 minutes at room temperature under the dark condition. Then capsaicin solution, which gives 300 nM in assay mixture, was automatically added to the assay plate by the FDSS 6000.\nThe Acid-induced changes in the intracellular calcium concentration were monitored using FDSS 6000 (Hamamatsu Photonics, Japan), a fluorometric imaging system. The cell suspension in resting buffer (HBSS supplemented with 10 mM HEPES, pH 7.4) were pre-incubated with varying concentrations of the test compounds or resting buffer (buffer control) for 15 minutes at room temperature under the dark condition. The cells were automatically added the stimulating solution (HBSS supplemented with MES, final assay buffer pH5.8) by the FDSS 6000.\nThe monitoring of the changes in the fluorescence signals (λex=340 nm/380 nm, λem=510-520 nm) was initiated at 1 minute prior to the addition of capsaicin solution or acidic buffer and continued for 5 minute."}, "human VR1 [2]": {"molecular_target": "T1, human VR1", "assay": "Determination of pA2 values against capsaicin stimulation (Ca2+ imaging, FLIPR TETRA, Schild analysis)", "format": "cell-based", "conditions": "against capsaicin agonist dose-response", "description": "pA2 values of antagonists against the capsaicin agonist dose-response were determined using a Ca^2+ imaging assay with cells expressing high levels of human VR1 (for explanation of theory behind pA2 determinations, see A Pharmacological Primer: Theory, Applications, and Methods 2nd edition by Terry P. Kenakin, pp. 102-108, Academic Press, New York, 2006). Cells that express high levels of VR1 were obtained by generation of a cell line from […] with heterologous expression of VR1 under control of an inducible promoter. Specifically, cells expressing human VR1 under the control of the human cytomegalovirus immediate-early (CMV) promoter and two tetracycline operator 2 (TetO2) sites were made using the T-REx System (Invitrogen, Carlsbad, Calif., USA). Details and methods concerning this system are published (Hum. Gene Ther. 9, pp. 1939-1950, 1998; Annu. Rev. Microbiol. 48, pp. 345-369, 1994; Mol. Biol. 169, pp. 707-721, 1983). VR1 was subcloned into the T-REx System pcDNA5/TO vector (Invitrogen Cat# V1033-20) which was transfected into the T-REx System […] cell line (Invitrogen Cat# R710-07) from which a stable cell line was established which express VR1 after induction by exposure to tetracycline or doxycycline (Hum. Gene Ther. 9, pp. 1939-1950, 1998; instructions that come with purchase of products noted above). […]\nFor assay preparation, cells expressing human VR1 as described above were plated in 96-well plates (Becton Dickinson [BD] poly-D-lysine coated 96-well plates, cat#356692) at 55,000 cells per well in culture media (described above) that also contains 1 ug/ml doxycycline. […] Changes in the fluorescence signal (λex=470-495 nm, λem=515-575 nm) were monitored throughout the experiment before agonist addition and for at least 2 min after agonist addition (enough time for the fluorescence response to reach and then decline from the absolute maximum, agonist-induced signal attained). […]"}},
  "note": "pIC50: −log10 of the molar value.",
  "data": [
    {"molecule": "C[C@H](NC(=O)c1ccc2nc(C(C)(C)C(F)(F)F)ccc2c1)c1cnn(C)c1Cl", "note": "[Example 18]", "values": [
      {"measurement": "pIC50", "setting": "human VR1 [1]", "result": 7.75},
      {"measurement": "Kb", "setting": "human VR1 [2]; pre-incubation 30 mins", "result": 5.25, "unit": "nM"}
    ]},
    {"molecule": "Cc1c([C@@H](C)NC(=O)c2ccc3nc(C(C)(C)C(F)(F)F)ccc3c2)cnn1CC(F)(F)F", "note": "[Example 6, N-((1R)-1-(5-methyl-1-(2,2,2-trifluoroethyl)-1H-pyrazol-4-yl)ethyl)-2-(2,2,2-trifluoro-1,1-dimethylethyl)quinoline-6-carboxamide]", "values": [
      {"measurement": "pIC50", "setting": "human VR1 [1]", "result": 7.58},
      {"measurement": "Kb", "setting": "human VR1 [2]; pre-incubation 2 mins", "result": 1.86, "unit": "nM"}
    ]},
    {"molecule": "Cc1c([C@@H](C)NC(=O)c2ccc3nc(C(C)(C)C(F)(F)F)ccc3c2)cnn1C", "note": "[Example 1]", "values": [
      {"measurement": "pIC50", "setting": "human VR1 [1]", "result": 7.60},
      {"measurement": "Kb", "setting": "human VR1 [2]; pre-incubation 2 mins", "result": 1.74, "unit": "nM"}
    ]}
  ]
}
